Results from patent publication US20130058977A1, “COMPOSITIONS AND METHODS RELATED TO INDUCED TOLEROGENIC DENDRITIC CELLS EXTERNALLY LOADED WITH MHC CLASS I-RESTRICTED EPITOPES” (Selecta Biosciences, Inc., priority 2011, published 2013).

Tested on: TCR transgenic OTI cells
Experiment: External loading of MHC Class I-restricted epitopes onto itDCs, read out as Phospho-Zap-70 in OTI cells
Format: cell-based
Conditions: dendritic cells externally loaded on ice for 30 minutes; mixed with OTI cells for 30 min at 37 C; pZap70 staining
Protocol: Dendritic cells were externally loaded on ice for 30 minutes with MHC Class I-restricted peptides from Ovalbumin recognized by TCR transgenic OTI cells. DC were washed and mixed with OTI cells for 30 min in complete media at 37 C, 5% CO2. Cells were stained with conjugated antibodies specifically recognizing TCR. After fixation and permeabilization with paraformaldehyde and methanol, cells were labelled with monoclonal antibodies specific for the phosphorylated (activated) form of the Zeta-chain-associated protein kinase 70 (Phospho-Zap-70). Expression of pZap70 is directly proportional to the amount of stimulatory signal delivered through the TCR to T cells.

Substance: SINFEKL [MHC Class I-restricted peptide from Ovalbumin recognized by TCR transgenic OTI cells]
- loading of a MHC Class I-restricted epitope onto itDCs: successful loading
